Reference: patent US10538554B2, “Peptides and uses therefor as antiviral agents” (priority 2015, dated 2020)
Bridge positions count the residues as written; N and C are the ends. Square brackets hold non-standard residues; d marks the D form. Peptide text beside a SMILES is read from it.

Experiments:
[1] = tested on: H9N2 A/Iran/16/2000; conditions: 48 h, 10 μM
[2] = tested on: H1N1 A1/Malaysia/302/1954; conditions: A1/Malaysia/302/1954, 48 h, 10 μM
[3] = tested on: H3N8 A/Miami/2/63; conditions: A/Miami/2/63, 48 h, 10 μM
[4] = tested on: H3N2 A/HK/8/1968; conditions: A/HK/8/1968, 48 h, 10 μM
[5] = tested on: H1N1 A/NY/18/2009; conditions: A/NY/18/2009, 48 h, 10 μM
[6] = tested on: H1N1 A/PR/8/1934; conditions: A/PR/8/1934, 48 h, 10 μM

| Compound | % inhibition H9N2 [1] [%] | % inhibition H1N1 [2] [%] | % inhibition H3N8 [3] [%] | % inhibition H3N2 [4] [%] | % Inhibition Pdm 2009 [5] [%] | % Inhibition PR/8 [6] [%] |
| --- | --- | --- | --- | --- | --- | --- |
| CC[C@@H](C)[C@H]1NC(=O)[C@@H](Cc2ccccc2)NC(=O)[C@@H](CS)NC(=O)[C@@H](Cc2ccccc2)NC(=O)[C@@H](Cc2c[nH]c3ccccc23)NC(=O)[C@@H]([C@H](C)O)NC(=O)[C@H](NC(=O)[C@H](CCCCN)NC(=O)[C@H](CCCCN)NC(=O)[C@H](CCCNC(=N)N)NC(=O)[C@@H](N)CCCNC(=N)N)CSSC[C@H](C(=O)O)NC(=O)[C@@H](CC(N)=O)NC1=O [PSP IV A2, H-RRKKctwfcfinc-OH] (H-RRKK[dC][dT][dW][dF][dC][dF][dI][dN][dC]-OH; disulfide 5-13) | 64 | 60 | 76 | 82 | 68 | 68 |
| CC[C@@H](C)[C@H]1NC(=O)[C@@H](Cc2ccccc2)NC(=O)[C@@H](Cc2c[nH]cn2)NC(=O)[C@@H](Cc2ccccc2)NC(=O)[C@@H](Cc2c[nH]c3ccccc23)NC(=O)[C@@H]([C@H](C)O)NC(=O)[C@H](NC(=O)[C@H](CCCCN)NC(=O)[C@H](CCCCN)NC(=O)[C@H](CCCNC(=N)N)NC(=O)[C@@H](N)CCCNC(=N)N)CSSC[C@H](C(=O)O)NC(=O)[C@@H](CC(N)=O)NC1=O [PSP IV A7, H-RRKKctwfhfinc-OH] (H-RRKK[dC][dT][dW][dF][dH][dF][dI][dN][dC]-OH; disulfide 5-13) | 65 | 68 | 79 | 80 | 71 | 73 |
| CC[C@@H](C)[C@H]1NC(=O)[C@@H](Cc2ccccc2)NC(=O)[C@@H]([C@H](C)CC)NC(=O)[C@@H](Cc2ccccc2)NC(=O)[C@@H](Cc2c[nH]c3ccccc23)NC(=O)[C@@H]([C@H](C)O)NC(=O)[C@H](NC(=O)[C@H](CCCCN)NC(=O)[C@H](CCCCN)NC(=O)[C@H](CCCNC(=N)N)NC(=O)[C@@H](N)CCCNC(=N)N)CSSC[C@H](C(=O)O)NC(=O)[C@@H](CC(N)=O)NC1=O [PSP IV A8, H-RRKKctwfifinc-OH] (H-RRKK[dC][dT][dW][dF][dI][dF][dI][dN][dC]-OH; disulfide 5-13) | 92 | 92 | 96 | 96 | 95 | 97 |
| CC[C@@H](C)[C@H]1NC(=O)[C@@H](Cc2ccccc2)NC(=O)[C@@H](CCCCN)NC(=O)[C@@H](Cc2ccccc2)NC(=O)[C@@H](Cc2c[nH]c3ccccc23)NC(=O)[C@@H]([C@H](C)O)NC(=O)[C@H](NC(=O)[C@H](CCCCN)NC(=O)[C@H](CCCCN)NC(=O)[C@H](CCCNC(=N)N)NC(=O)[C@@H](N)CCCNC(=N)N)CSSC[C@H](C(=O)O)NC(=O)[C@@H](CC(N)=O)NC1=O [PSP IV A9, H-RRKKctwfkfinc-OH] (H-RRKK[dC][dT][dW][dF][dK][dF][dI][dN][dC]-OH; disulfide 5-13) | 39 | 56 | 79 | 73 | 66 | 74 |
| CC[C@@H](C)[C@H]1NC(=O)[C@@H](Cc2ccccc2)NC(=O)[C@@H](CC(C)C)NC(=O)[C@@H](Cc2ccccc2)NC(=O)[C@@H](Cc2c[nH]c3ccccc23)NC(=O)[C@@H]([C@H](C)O)NC(=O)[C@H](NC(=O)[C@H](CCCCN)NC(=O)[C@H](CCCCN)NC(=O)[C@H](CCCNC(=N)N)NC(=O)[C@@H](N)CCCNC(=N)N)CSSC[C@H](C(=O)O)NC(=O)[C@@H](CC(N)=O)NC1=O [PSP IV A10, H-RRKKctwflfinc-OH] (H-RRKK[dC][dT][dW][dF][dL][dF][dI][dN][dC]-OH; disulfide 5-13) | 97 | 90 | 96 | 96 | 85 | 96 |
| CC[C@@H](C)[C@H]1NC(=O)[C@@H](Cc2ccccc2)NC(=O)[C@@H](CCSC)NC(=O)[C@@H](Cc2ccccc2)NC(=O)[C@@H](Cc2c[nH]c3ccccc23)NC(=O)[C@@H]([C@H](C)O)NC(=O)[C@H](NC(=O)[C@H](CCCCN)NC(=O)[C@H](CCCCN)NC(=O)[C@H](CCCNC(=N)N)NC(=O)[C@@H](N)CCCNC(=N)N)CSSC[C@H](C(=O)O)NC(=O)[C@@H](CC(N)=O)NC1=O [PSP IV A11, H-RRKKctwfmfinc-OH] (H-RRKK[dC][dT][dW][dF][dM][dF][dI][dN][dC]-OH; disulfide 5-13) | 84 | 89 | 93 | 90 | 88 | 85 |
| CC[C@@H](C)[C@H]1NC(=O)[C@@H](Cc2ccccc2)NC(=O)[C@@H](CC(N)=O)NC(=O)[C@@H](Cc2ccccc2)NC(=O)[C@@H](Cc2c[nH]c3ccccc23)NC(=O)[C@@H]([C@H](C)O)NC(=O)[C@H](NC(=O)[C@H](CCCCN)NC(=O)[C@H](CCCCN)NC(=O)[C@H](CCCNC(=N)N)NC(=O)[C@@H](N)CCCNC(=N)N)CSSC[C@H](C(=O)O)NC(=O)[C@@H](CC(N)=O)NC1=O [PSP IV A12, H-RRKKctwfnfinc-OH] (H-RRKK[dC][dT][dW][dF][dN][dF][dI][dN][dC]-OH; disulfide 5-13) | 48 | 67 | 56 | – | 60 | – |
| CC[C@@H](C)[C@H]1NC(=O)[C@@H](Cc2ccccc2)NC(=O)[C@H]2CCCN2C(=O)[C@@H](Cc2ccccc2)NC(=O)[C@@H](Cc2c[nH]c3ccccc23)NC(=O)[C@@H]([C@H](C)O)NC(=O)[C@H](NC(=O)[C@H](CCCCN)NC(=O)[C@H](CCCCN)NC(=O)[C@H](CCCNC(=N)N)NC(=O)[C@@H](N)CCCNC(=N)N)CSSC[C@H](C(=O)O)NC(=O)[C@@H](CC(N)=O)NC1=O [PSP IV A13, H-RRKKctwfpfinc-OH] (H-RRKK[dC][dT][dW][dF][dP][dF][dI][dN][dC]-OH; disulfide 5-13) | 55 | 52 | 69 | 74 | 65 | 66 |
| CC[C@@H](C)[C@H]1NC(=O)[C@@H](Cc2ccccc2)NC(=O)[C@@H](CCC(N)=O)NC(=O)[C@@H](Cc2ccccc2)NC(=O)[C@@H](Cc2c[nH]c3ccccc23)NC(=O)[C@@H]([C@H](C)O)NC(=O)[C@H](NC(=O)[C@H](CCCCN)NC(=O)[C@H](CCCCN)NC(=O)[C@H](CCCNC(=N)N)NC(=O)[C@@H](N)CCCNC(=N)N)CSSC[C@H](C(=O)O)NC(=O)[C@@H](CC(N)=O)NC1=O [PSP IV A14, H-RRKKctwfqfinc-OH] (H-RRKK[dC][dT][dW][dF][dQ][dF][dI][dN][dC]-OH; disulfide 5-13) | 68 | 66 | 83 | 83 | 74 | 77 |
| CC[C@@H](C)[C@H]1NC(=O)[C@@H](Cc2ccccc2)NC(=O)[C@@H](CO)NC(=O)[C@@H](Cc2ccccc2)NC(=O)[C@@H](Cc2c[nH]c3ccccc23)NC(=O)[C@@H]([C@H](C)O)NC(=O)[C@H](NC(=O)[C@H](CCCCN)NC(=O)[C@H](CCCCN)NC(=O)[C@H](CCCNC(=N)N)NC(=O)[C@@H](N)CCCNC(=N)N)CSSC[C@H](C(=O)O)NC(=O)[C@@H](CC(N)=O)NC1=O [PSP IV A16, H-RRKKctwfsfinc-OH] (H-RRKK[dC][dT][dW][dF][dS][dF][dI][dN][dC]-OH; disulfide 5-13) | 89 | 91 | 93 | 96 | 81 | 78 |
| CC[C@@H](C)[C@H]1NC(=O)[C@@H](Cc2ccccc2)NC(=O)[C@@H](C(C)C)NC(=O)[C@@H](Cc2ccccc2)NC(=O)[C@@H](Cc2c[nH]c3ccccc23)NC(=O)[C@@H]([C@H](C)O)NC(=O)[C@H](NC(=O)[C@H](CCCCN)NC(=O)[C@H](CCCCN)NC(=O)[C@H](CCCNC(=N)N)NC(=O)[C@@H](N)CCCNC(=N)N)CSSC[C@H](C(=O)O)NC(=O)[C@@H](CC(N)=O)NC1=O [PSP IV A18, H-RRKKctwfvfinc-OH] (H-RRKK[dC][dT][dW][dF][dV][dF][dI][dN][dC]-OH; disulfide 5-13) | 95 | 84 | 96 | 96 | 97 | 96 |
